Results on 15 compounds are retold here after ChEMBL document CHEMBL4270495, “Oleanane-, ursane-, and quinone methide friedelane-type triterpenoid derivatives: Recent advances in cancer treatment” (Eur J Med Chem, 2017).

pIC50: −log10 of the molar value.

Common to all, as to type: functional, cell-based
Assay [1] has as its system BGC-823. The experiment in a line: Cytotoxicity in human BGC823 cells assessed as reduction in cell viability incubated for 72 hrs by MTT assay. The note with it: BGC-823, 72 h. In general terms: Formazan colour is commonly taken as a measure of viable cells.
The test system of assay [2] is MCF7. The experiment in a line: Cytotoxicity in human MCF7 cells assessed as reduction in cell viability incubated for 24 hrs by MTT assay. The note with it: MCF7, 24 h.
Assay [3] concerns MDA-MB-231. Nature of the assay: Cytotoxicity in human MDA-MB-231 cells assessed as reduction in cell viability incubated for 24 hrs by MTT assay. Particulars: MDA-MB-231, 24 h.
Assay [4] concerns TERT-RPE1. The experiment in a line: Cytotoxicity in human hTERT-RPE1 cells assessed as reduction in cell viability incubated for 24 hrs by MTT assay. The note with it: RPE-1, 24 h.

What is called pIC50 is the negative decadic logarithm of the IC50, by convention in mol/L. In the case of `C[C@H]1[C@H](C)CC[C@]2(C(=O)OCCBr)CC[C@]3(C)C(=CC[C@@H]4[C@@]5(C)CC[C@H](O)C(C)(C)[C@@H]5CC[C@]43C)[C@H]12`, the negative-log IC50 (pIC50) in assay [1] is 4.91.
`CCOC(=O)/C=C/c1ccc(OC(=O)[C@@]2(C)CC[C@]3(C)CC[C@]4(C)C(=CC(=O)[C@@H]5[C@@]6(C)CC[C@H](OC(=O)[C@@H](N)CCSC)C(C)(C)[C@@H]6CC[C@]54C)[C@H]3C2)c(OC)c1`: the negative-log IC50 (pIC50) in assay [2] was 5.06; in assay [3], 5.27; in assay [4] it was 4.79.
For the compound `C[C@H]1[C@H](C)CC[C@]2(C(=O)OCCCCN3CCCC3)CC[C@]3(C)C(=CC[C@@H]4[C@@]5(C)CC[C@H](O)C(C)(C)[C@@H]5CC[C@]43C)[C@H]12`, the negative-log IC50 (pIC50) in assay [1] is 5.14.
The same measure, in the same setting: to `C[C@H]1[C@H](C)CC[C@]2(C(=O)OCCN3CCOCC3)CC[C@]3(C)C(=CC[C@@H]4[C@@]5(C)CC[C@H](O)C(C)(C)[C@@H]5CC[C@]43C)[C@H]12` belongs 5.06; to `C[C@H]1[C@H](C)CC[C@]2(C(=O)OCCCN3CCCC3)CC[C@]3(C)C(=CC[C@@H]4[C@@]5(C)CC[C@H](O)C(C)(C)[C@@H]5CC[C@]43C)[C@H]12`, 5.12.
For the compound `COC(=O)/C=C/c1ccc(OC(=O)[C@@]2(C)CC[C@]3(C)CC[C@]4(C)C(=CC(=O)[C@@H]5[C@@]6(C)CC[C@H](OC(=O)[C@@H](N)CCSC)C(C)(C)[C@@H]6CC[C@]54C)[C@H]3C2)cc1`, the figures for the negative logarithm of the IC50 (pIC50) in assay [2], in assay [3] and in assay [4] were 5.14, 5.19 and 5.07, respectively.
For `C[C@H]1[C@H](C)CC[C@]2(C(=O)OCCCCN3CCCCC3)CC[C@]3(C)C(=CC[C@@H]4[C@@]5(C)CC[C@H](O)C(C)(C)[C@@H]5CC[C@]43C)[C@H]12`, the negative-log IC50 (pIC50) in assay [1] is 5.30.
With `COC(=O)/C=C/c1ccc(OC(=O)[C@@]2(C)CC[C@]3(C)CC[C@]4(C)C(=CC(=O)[C@@H]5[C@@]6(C)CC[C@H](OC(=O)[C@@H](N)CC[Se]C)C(C)(C)[C@@H]6CC[C@]54C)[C@H]3C2)c(OC)c1`, the figures for the negative logarithm of the IC50 (pIC50) in assay [2], in assay [3] and in assay [4] were 5.73, 5.86 and 5.31, respectively.
With `COC(=O)/C=C/c1ccc(OC(=O)[C@@]2(C)CC[C@]3(C)CC[C@]4(C)C(=CC(=O)[C@@H]5[C@@]6(C)CC[C@H](OC(=O)[C@@H](N)CC[Se]C)C(C)(C)[C@@H]6CC[C@]54C)[C@H]3C2)cc1`, the pIC50 in assay [2] was 5.22; in assay [3], 5.20; in assay [4] it was 5.20.
On to `C[C@H]1[C@H](C)CC[C@]2(C(=O)OCCCCN3CCOCC3)CC[C@]3(C)C(=CC[C@@H]4[C@@]5(C)CC[C@H](O)C(C)(C)[C@@H]5CC[C@]43C)[C@H]12`, for which the negative logarithm of the IC50 (pIC50) in assay [1] was 5.19.
The same measure, in the same setting: to `C[C@H]1[C@H](C)CC[C@]2(C(=O)OCCCN3CCCCC3)CC[C@]3(C)C(=CC[C@@H]4[C@@]5(C)CC[C@H](O)C(C)(C)[C@@H]5CC[C@]43C)[C@H]12` belongs 5.14.
With `CCOC(=O)/C=C/c1ccc(OC(=O)[C@@]2(C)CC[C@]3(C)CC[C@]4(C)C(=CC(=O)[C@@H]5[C@@]6(C)CC[C@H](OC(=O)[C@@H](N)CC[Se]C)C(C)(C)[C@@H]6CC[C@]54C)[C@H]3C2)c(OC)c1`, the negative-log IC50 (pIC50) in assay [2] is 5.07; in assay [3] it was 5.46; in assay [4], 4.91.
The matching figures for `COC(=O)/C=C/c1ccc(OC(=O)[C@@]2(C)CC[C@]3(C)CC[C@]4(C)C(=CC(=O)[C@@H]5[C@@]6(C)CC[C@H](OC(=O)[C@@H](N)CCSC)C(C)(C)[C@@H]6CC[C@]54C)[C@H]3C2)c(OC)c1`: 5.22, 5.45 and 4.98.
Turning to `C[C@H]1[C@H](C)CC[C@]2(C(=O)OCCCN3CCOCC3)CC[C@]3(C)C(=CC[C@@H]4[C@@]5(C)CC[C@H](O)C(C)(C)[C@@H]5CC[C@]43C)[C@H]12`, in assay [1], the negative logarithm of the IC50 (pIC50) is 5.14.
The same measure, in the same setting: the result for `C[C@H]1[C@H](C)CC[C@]2(C(=O)OCCN3CCCC3)CC[C@]3(C)C(=CC[C@@H]4[C@@]5(C)CC[C@H](O)C(C)(C)[C@@H]5CC[C@]43C)[C@H]12` reads 5.35.
